Measured values from US12570695B2, “Bicyclic peptide ligands specific for EphA2” (priority 2019, dated 2026).
Starred links: 1 amine or outer side, 2 acyl side, 3 side chain; linkers in the order of their positions; H or OH if unused. Positions of bridges follow the written chain, without caps; N, C: chain ends. Non-standard residues stand in square brackets, D forms with d. Residues, ends and D or L forms follow the SMILES beside them. TATA = O=C(CC[*:1])N1CN(C(=O)CC[*:2])CN(C(=O)CC[*:3])C1; Dip = N[C@H](C(=O)O)C(c1ccccc1)c1ccccc1; 1Nal = N[C@@H](Cc1cccc2ccccc12)C(=O)O; d1Nal = N[C@H](Cc1cccc2ccccc12)C(=O)O; Hyp = O=C(O)[C@@H]1C[C@@H](O)CN1; hArg = N=C(N)NCCCC[C@H](N)C(=O)O; Cba = N[C@@H](CC1CCC1)C(=O)O; NMeA = CN[C@@H](C)C(=O)O

What follows are compounds tested against human EphA2 (Homo sapiens, UniProt P29317) (assay: biochemical).
Sequence of human EphA2 (P29317 24-976): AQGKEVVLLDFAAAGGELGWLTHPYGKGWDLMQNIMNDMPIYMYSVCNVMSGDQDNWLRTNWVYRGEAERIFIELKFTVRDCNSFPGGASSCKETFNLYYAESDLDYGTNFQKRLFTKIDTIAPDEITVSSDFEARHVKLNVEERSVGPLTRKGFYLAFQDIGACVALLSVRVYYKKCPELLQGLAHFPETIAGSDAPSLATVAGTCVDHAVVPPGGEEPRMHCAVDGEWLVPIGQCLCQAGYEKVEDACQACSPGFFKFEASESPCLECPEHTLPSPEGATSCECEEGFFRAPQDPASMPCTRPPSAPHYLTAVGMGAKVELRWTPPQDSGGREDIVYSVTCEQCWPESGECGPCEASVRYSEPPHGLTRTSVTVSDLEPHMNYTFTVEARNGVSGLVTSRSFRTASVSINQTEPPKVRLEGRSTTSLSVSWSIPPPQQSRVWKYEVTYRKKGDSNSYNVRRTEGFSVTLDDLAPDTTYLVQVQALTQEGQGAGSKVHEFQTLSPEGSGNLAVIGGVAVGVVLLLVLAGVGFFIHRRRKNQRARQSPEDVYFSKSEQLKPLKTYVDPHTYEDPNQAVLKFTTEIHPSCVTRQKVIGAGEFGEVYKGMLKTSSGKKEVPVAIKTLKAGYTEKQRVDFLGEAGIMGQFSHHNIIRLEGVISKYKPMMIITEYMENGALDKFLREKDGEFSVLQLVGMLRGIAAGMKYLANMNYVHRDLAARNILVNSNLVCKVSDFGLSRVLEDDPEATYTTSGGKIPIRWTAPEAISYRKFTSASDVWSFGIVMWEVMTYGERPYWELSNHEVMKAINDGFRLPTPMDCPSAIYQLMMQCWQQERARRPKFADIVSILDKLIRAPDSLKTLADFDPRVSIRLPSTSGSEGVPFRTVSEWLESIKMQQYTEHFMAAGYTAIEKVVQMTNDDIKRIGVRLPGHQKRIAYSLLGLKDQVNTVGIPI
Protocol: Peptides without a fluorescent tag were tested in competition with a peptide with a fluorescent tag and a known Kd.
Peptides were diluted to an appropriate concentration in assay buffer as described in the direct binding assay with a maximum of 5% DMSO, then serially diluted 1 in 2. […] Measurements were conducted, however the gain was determined prior to the first measurement. Data analysis was in Systat Sigmaplot version 12.0 where the mP values were fit to a user defined cubic equation to generate a Ki value:
“Lig”, “KLig” and “Prot” were all defined values relating to: fluorescent peptide concentration, the Kd of the fluorescent peptide and EphA2 concentration respectively.

Point of comparison: CC(C)C[C@@H]1NC(=O)[C@@H]2CSCCC(=O)N3CN(CN(C3)C(=O)CCSC[C@H](NC(=O)[C@H](CC(=O)O)NC(=O)[C@H](CCCCNC(=N)N)NC(=O)[C@H](C)N)C(=O)N3C[C@H](O)C[C@H]3C(=O)N[C@@H](CC(C)C)C(=O)N[C@@H](C(C)C)C(=O)N[C@@H](CC(N)=O)C(=O)N3CCC[C@H]3C(=O)N[C@@H](CC(C)C)C(=O)N2)C(=O)CCSC[C@@H](C(N)=O)NC(=O)[C@H](CCCCNC(=N)N)NC(=O)[C@H](Cc2c[nH]c3ccccc23)NC(=O)[C@@H](CC(=O)O)NC(=O)[C@@H]2CCCN2C(=O)[C@H](CCC(=O)O)NC1=O [BCY12854, A-[HArg]-D-Ci[HyP]LVNPLCiiLEP[dD]W[HArg]Ciii] (H-A[hArg]DC[Hyp]LVNPLCLEP[dD]W[hArg]C-NH2; linker 4-11-18 via TATA; N-terminus and C-terminus assumed), Ki 9.34 nM. Against it:
- CC(C)C[C@@H]1NC(=O)[C@@H]2CSCCC(=O)N3CN(CN(C3)C(=O)CCSC[C@H](NC(=O)[C@H](CC(=O)O)NC(=O)[C@H](CCCCNC(=N)N)NC(=O)[C@H](C)N)C(=O)N3C[C@H](O)C[C@H]3C(=O)N[C@@H](CC(C)C)C(=O)N[C@@H](C(C)C)C(=O)N[C@@H](CC(N)=O)C(=O)N3CCC[C@H]3C(=O)N[C@@H](CC(C)C)C(=O)N2)C(=O)CCSC[C@@H](C(N)=O)NC(=O)[C@H]([C@@H](C)O)NC(=O)[C@H](Cc2c[nH]c3ccccc23)NC(=O)[C@@H](CC(=O)O)NC(=O)[C@@H]2CCCN2C(=O)[C@H](Cc2c[nH]cn2)NC1=O [BCY12855, A-[HArg]-D-Ci[HyP]LVNPLCiiLHP[dD]WTCiii] (H-A[hArg]DC[Hyp]LVNPLCLHP[dD]WTC-NH2; linker 4-11-18 via TATA; N-terminus and C-terminus assumed) — 1.7-fold lower, 5.55 nM
- CC(C)C[C@@H]1NC(=O)[C@@H]2CSCCC(=O)N3CN(CN(C3)C(=O)CCSC[C@H](NC(=O)[C@H](CC(=O)O)NC(=O)[C@H](CCCCNC(=N)N)NC(=O)[C@H](C)N)C(=O)N3C[C@H](O)C[C@H]3C(=O)N[C@@H](CC(C)C)C(=O)N[C@@H](C(C)C)C(=O)N[C@@H](CC(N)=O)C(=O)N3CCC[C@H]3C(=O)N[C@@H](CC(C)C)C(=O)N2)C(=O)CCSC[C@@H](C(=O)N[C@H](C)C(N)=O)NC(=O)[C@H]([C@@H](C)O)NC(=O)[C@H](Cc2c[nH]c3ccccc23)NC(=O)[C@@H](CC(=O)O)NC(=O)[C@@H]2CCCN2C(=O)[C@H](CCC(=O)O)NC1=O [BCY12857, A-[HArg]-D-Ci[HyP]LVNPLCiiLEP[dD]WTCiii[dA]] (H-A[hArg]DC[Hyp]LVNPLCLEP[dD]WTC[dA]-NH2; linker 4-11-18 via TATA; N-terminus and C-terminus assumed) — 1.7-fold higher, 16 nM
- CC(C)C[C@@H]1NC(=O)[C@@H]2CSCCC(=O)N3CN(CN(C3)C(=O)CCSC[C@H](N)C(=O)N3C[C@H](O)C[C@H]3C(=O)N[C@@H](CC(C)C)C(=O)N[C@@H](C(C)C)C(=O)N[C@@H](CC(N)=O)C(=O)N3CCC[C@H]3C(=O)N[C@@H](CC(C)C)C(=O)N2)C(=O)CCSC[C@@H](C(N)=O)NC(=O)[C@H]([C@@H](C)O)NC(=O)[C@H](Cc2c[nH]c3ccccc23)NC(=O)[C@@H](CC(=O)O)NC(=O)[C@@H]2CCCN2C(=O)[C@H](C(c2ccccc2)c2ccccc2)NC1=O [BCY12860, Ci[HyP]LVNPLCiiL[3,3-DPA]P[dD]WTCiii] (H-C[Hyp]LVNPLCL[Dip]P[dD]WTC-NH2; linker 1-8-15 via TATA; N-terminus and C-terminus assumed) — 14-fold lower, 0.66 nM
- CC(C)C[C@@H]1NC(=O)[C@@H]2CSCCC(=O)N3CN(CN(C3)C(=O)CCSC[C@H](N)C(=O)N3C[C@H](O)C[C@H]3C(=O)N[C@@H](CC(C)C)C(=O)N[C@@H](C(C)C)C(=O)N[C@@H](CC(N)=O)C(=O)N3CCC[C@H]3C(=O)N[C@@H](CC(C)C)C(=O)N2)C(=O)CCSC[C@@H](C(=O)N[C@H](C)C(N)=O)NC(=O)[C@H]([C@@H](C)O)NC(=O)[C@H](Cc2c[nH]c3ccccc23)NC(=O)[C@@H](CC(=O)O)NC(=O)[C@@H]2CCCN2C(=O)[C@H](CCC(=O)O)NC1=O [BCY12861, Ci[HyP]LVNPLCiiLEP[dD]WTCiii[dA]] (H-C[Hyp]LVNPLCLEP[dD]WTC[dA]-NH2; linker 1-8-15 via TATA; N-terminus and C-terminus assumed) — 2.3-fold higher, 21.7 nM
- CC(C)C[C@@H]1NC(=O)[C@@H]2CSCCC(=O)N3CN(CN(C3)C(=O)CCSC[C@H](NC(=O)[C@H](CC(=O)O)NC(=O)[C@H](CCCCNC(=N)N)NC(=O)[C@H](C)N)C(=O)N3C[C@H](O)C[C@H]3C(=O)N[C@@H](CC3CCC3)C(=O)N[C@@H](C(C)C)C(=O)N[C@@H](CC(N)=O)C(=O)N3CCC[C@H]3C(=O)N[C@@H](CC(C)C)C(=O)N2)C(=O)CCSC[C@@H](C(N)=O)NC(=O)[C@H](CCCCNC(=N)N)NC(=O)[C@H](Cc2c[nH]c3ccccc23)NC(=O)[C@@H](CC(=O)O)NC(=O)[C@@H]2CCCN2C(=O)[C@H](Cc2c[nH]cn2)NC1=O [BCY12862, A-[HArg]-D-Ci[HyP][Cba]VNPLCiiLHP[dD]W[HArg]Ciii] (H-A[hArg]DC[Hyp][Cba]VNPLCLHP[dD]W[hArg]C-NH2; linker 4-11-18 via TATA; N-terminus and C-terminus assumed) — 7.7-fold lower, 1.22 nM
- CC(C)C[C@@H]1NC(=O)[C@@H]2CSCCC(=O)N3CN(CN(C3)C(=O)CCSC[C@H](NC(=O)[C@H](CC(=O)O)NC(=O)[C@H](CCCCNC(=N)N)NC(=O)[C@@H](C)N)C(=O)N3C[C@H](O)C[C@H]3C(=O)N[C@@H](CC3CCC3)C(=O)N[C@@H](C(C)C)C(=O)N[C@@H](CC(N)=O)C(=O)N3CCC[C@H]3C(=O)N[C@@H](CC(C)C)C(=O)N2)C(=O)CCSC[C@@H](C(=O)N[C@H](C)C(N)=O)NC(=O)[C@H]([C@@H](C)O)NC(=O)[C@H](Cc2c[nH]c3ccccc23)NC(=O)[C@@H](CC(=O)O)NC(=O)[C@@H]2CCCN2C(=O)[C@H](CCC(=O)O)NC1=O [BCY12864, [dA]-[HArg]-D-Ci[HyP][Cba]VNPLCiiLEP[dD]WTCiii-[dA]] (H-[dA][hArg]DC[Hyp][Cba]VNPLCLEP[dD]WTC[dA]-NH2; linker 4-11-18 via TATA; N-terminus and C-terminus assumed) — within 1.5-fold, 9.29 nM
- CC(C)C[C@@H]1NC(=O)[C@@H]2CSCCC(=O)N3CN(CN(C3)C(=O)CCSC[C@H](NC(=O)[C@H](CC(=O)O)NC(=O)[C@H](CCCCNC(=N)N)NC(=O)[C@H](C)N)C(=O)N3C[C@H](O)C[C@H]3C(=O)N[C@@H](CC(C)C)C(=O)N[C@@H](C(C)C)C(=O)N[C@@H](CC(N)=O)C(=O)N3CCC[C@H]3C(=O)N[C@@H](CC(C)C)C(=O)N2)C(=O)CCSC[C@@H](C(N)=O)NC(=O)[C@H](CCCCNC(=N)N)NC(=O)[C@H](Cc2c[nH]c3ccccc23)NC(=O)[C@@H](CC(=O)O)NC(=O)[C@@H]2CCCN2C(=O)[C@H](Cc2cccc3ccccc23)NC1=O [BCY13117, A-[HArg]-D-Ci[HyP]LVNPLCiiL[1Nal]P[dD]W[HArg]Ciii] (H-A[hArg]DC[Hyp]LVNPLCL[1Nal]P[dD]W[hArg]C-NH2; linker 4-11-18 via TATA; N-terminus and C-terminus assumed) — 8.3-fold lower, 1.12 nM
- CC(C)C[C@@H]1NC(=O)[C@@H]2CSCCC(=O)N3CN(CN(C3)C(=O)CCSC[C@H](NC(=O)[C@H](CC(=O)O)NC(=O)[C@H](CCCCNC(=N)N)NC(=O)[C@H](C)N)C(=O)N3C[C@H](O)C[C@H]3C(=O)N[C@@H](CC(C)C)C(=O)N[C@@H](C(C)C)C(=O)N[C@@H](CC(N)=O)C(=O)N3CCC[C@H]3C(=O)N[C@@H](CC(C)C)C(=O)N2)C(=O)CCSC[C@@H](C(N)=O)NC(=O)[C@H]([C@@H](C)O)NC(=O)[C@H](Cc2c[nH]c3ccccc23)NC(=O)[C@@H](Cc2cccc3ccccc23)NC(=O)[C@@H]2CCCN2C(=O)[C@H](CCC(=O)O)NC1=O [BCY13118, A-[HArg]-D-Ci[HyP]LVNPLCiiLEP[d1Nal]WTCiii] (H-A[hArg]DC[Hyp]LVNPLCLEP[d1Nal]WTC-NH2; linker 4-11-18 via TATA; N-terminus and C-terminus assumed) — 1.7-fold lower, 5.42 nM
- CC(C)C[C@@H]1NC(=O)[C@@H]2CSCCC(=O)N3CN(CN(C3)C(=O)CCSC[C@H](N)C(=O)N3C[C@H](O)C[C@H]3C(=O)N[C@@H](CC(C)C)C(=O)N[C@@H](C(C)C)C(=O)N[C@@H](CC(N)=O)C(=O)N3CCC[C@H]3C(=O)N[C@@H](CC(C)C)C(=O)N2)C(=O)CCSC[C@@H](C(N)=O)NC(=O)[C@H]([C@@H](C)O)NC(=O)[C@H](Cc2c[nH]c3ccccc23)NC(=O)[C@@H](CC(=O)O)NC(=O)[C@@H]2CCCN2C(=O)[C@H](Cc2cccc3ccccc23)NC1=O [BCY13119, Ci[HyP]LVNPLCiiL[1Nal]P[dD]WTCiii] (H-C[Hyp]LVNPLCL[1Nal]P[dD]WTC-NH2; linker 1-8-15 via TATA; N-terminus and C-terminus assumed) — 3.5-fold lower, 2.64 nM
- CC(=O)N[C@H]1CSCCC(=O)N2CN3CN(C2)C(=O)CCSC[C@@H](C(=O)N[C@H](CCCCN)C(N)=O)NC(=O)[C@H]([C@@H](C)O)NC(=O)[C@H](Cc2c[nH]c4ccccc24)NC(=O)[C@@H](CC(=O)O)NC(=O)[C@@H]2CCCN2C(=O)[C@H](C(c2ccccc2)c2ccccc2)NC(=O)[C@H](CC(C)C)NC(=O)[C@H](CSCCC3=O)NC(=O)[C@H](CC(C)C)NC(=O)[C@@H]2CCCN2C(=O)[C@H](CC(N)=O)NC(=O)[C@H](C(C)C)NC(=O)[C@H](CC(C)C)NC(=O)[C@@H]2C[C@@H](O)CN2C1=O [BCY13120, Ac-Ci[HyP]LVNPLCiiL[3,3-DPA]P[dD]WTCiii-[dK]] (Ac-C[Hyp]LVNPLCL[Dip]P[dD]WTC[dK]-NH2; linker 1-8-15 via TATA; C-terminus assumed) — 10-fold lower, 0.916 nM
- CN[C@@H](C)C(=O)N[C@@H](CCCCNC(=N)N)C(=O)N[C@@H](CC(=O)O)C(=O)N[C@H]1CSCCC(=O)N2CN3CN(C2)C(=O)CCSC[C@H](NC(=O)[C@H](CC(C)C)NC(=O)[C@@H]2CCCN2C(=O)[C@H](CC(N)=O)NC(=O)[C@H](C(C)C)NC(=O)[C@H](CC(C)C)NC(=O)[C@@H]2C[C@@H](O)CN2C1=O)C(=O)N[C@@H](CC(C)C)C(=O)N[C@@H](Cc1c[nH]cn1)C(=O)N1CCC[C@H]1C(=O)N[C@H](CC(=O)O)C(=O)N[C@@H](Cc1c[nH]c2ccccc12)C(=O)N[C@@H](CCCCNC(=N)N)C(=O)N[C@H](C(N)=O)CSCCC3=O [BCY13121, [NMeAla]-[HArg]-D-Ci[HyP]LVNPLCiiLHP[dD]W[HArg]Ciii] (H-[NMeA][hArg]DC[Hyp]LVNPLCLHP[dD]W[hArg]C-NH2; linker 4-11-18 via TATA; N-terminus and C-terminus assumed) — 6.3-fold lower, 1.49 nM
